Measurements: ChEMBL document CHEMBL1201862, “PubChem BioAssay data set” (2004)
pIC50: −log10 of the molar value. The source made the active and inactive calls.

Assays:
Genome polyprotein = Genome polyprotein (dengue virus type 2, UniProt P29990); assay: flavivirus cap methylation enzyme inhibition – biochemical, confirmation dose response, primary screen (AID 588689); assay type: functional
[1] = target: T1, Probable nicotinate-nucleotide adenylyltransferase (Staphylococcus aureus (strain N315), UniProt P65502); assay type: functional, Staphylococcus aureus subsp. aureus N315;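 as to IC50 Mean: confirmatory dose-response retesting of NadD inhibitor hits first found in an ultra-high-throughput screen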
[2] = inhibition of ARNT PAS-B/TACC3 complex formation – biochemical, AlphaScreen, cherry-picked samples, confirmation (AID 651703); assay type: functional, Homo sapiens;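 also: His-tagged ARNT PAS-B domain paired with GST-TACC3 E629A dimer coactivator fragment; potency of inhibitors that break up the complex and lower AlphaScreen signal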
[3] = target: T1, Probable nicotinate-nucleotide adenylyltransferase; assay type: functional, Staphylococcus aureus subsp. aureus N315; conditions: read-out: IC50_Mean
[4] = target: T2, Delta-type opioid receptor (Homo sapiens, UniProt P41143); assay: HTS Image-Based Screen for Agonists of the DOR Receptor. [Related pubchem assays (depositor defined):AID1777, AID1786, AID2133]; assay type: functional
Beta-galactosidase [5] = target: T3, Beta-galactosidase (Escherichia coli, UniProt Q8VNN2); assay type: functional
[6] = target: T4, Type-1 angiotensin II receptor (Homo sapiens, UniProt P30556); assay: antagonism of angiotensin II type 1 receptor – cell-based, uHTS hits, selectivity assay for APJ receptor antagonist project, dose response (AID 463214); assay type: functional;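 also: antagonist potency against angiotensin II stimulated AT1 response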
T4 sequence (P30556 whole entry): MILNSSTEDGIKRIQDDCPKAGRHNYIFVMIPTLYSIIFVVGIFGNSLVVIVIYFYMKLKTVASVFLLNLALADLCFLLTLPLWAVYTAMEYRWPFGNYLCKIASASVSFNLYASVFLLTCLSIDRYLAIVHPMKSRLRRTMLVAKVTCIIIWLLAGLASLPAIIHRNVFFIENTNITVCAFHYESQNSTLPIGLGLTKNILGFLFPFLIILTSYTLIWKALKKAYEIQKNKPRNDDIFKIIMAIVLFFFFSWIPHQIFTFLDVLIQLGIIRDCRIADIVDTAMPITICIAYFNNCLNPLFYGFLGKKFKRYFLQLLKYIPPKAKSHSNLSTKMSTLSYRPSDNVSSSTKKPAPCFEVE

CHO = CHO cell viability loss, potency – luminescence, cytotoxicity control for TLR9-MyD88 binding inhibitor project, dose response (AID 588339); assay type: functional, cell-based, hamster; conditions: Cricetulus griseus;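 also: CHO cells stably coexpressing TLR9 and MyD88 fusions from primary screen; compound exposure lasted 48 hours before viability readout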
[7] = Fluorescence-based cell-based high throughput dose response assay for inhibitors of the interaction of nucleotide-binding oligomerization domain containing 2 (NOD2) and the receptor-interacting serine-threonine kinase 2 (RIPK2).; assay type: functional; conditions: Homo sapiens
Beta Lactamase [8] = target: T5, Beta Lactamase (Pseudomonas aeruginosa, UniProt Q932Y6); assay: BLA reporter interference, concentration series – BLA reporter cells, FRET fluorescence, artefact control for NOD2-RIPK2 interaction inhibitor project, dose response (AID 651552); assay type: functional, cell-based
Beta Lactamase [9] = target: T5, Beta Lactamase; assay: BLA reporter interference, concentration series – BLA reporter cells, FRET fluorescence, artefact control for TLR9-MyD88 binding inhibitor project, dose response (AID 588341); assay type: cell-based;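 also: cell based assay in CHO-K1 cells stably expressing beta-lactamase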
[10] = target: T6, Replicative DNA helicase DnaB (Mycobacterium tuberculosis, UniProt P9WMR3); assay: DnaB intein splicing inhibitors, dose response, biochemical, cell-free fluorescence (AID 449749); assay type: functional
T6 sequence (P9WMR3 whole entry): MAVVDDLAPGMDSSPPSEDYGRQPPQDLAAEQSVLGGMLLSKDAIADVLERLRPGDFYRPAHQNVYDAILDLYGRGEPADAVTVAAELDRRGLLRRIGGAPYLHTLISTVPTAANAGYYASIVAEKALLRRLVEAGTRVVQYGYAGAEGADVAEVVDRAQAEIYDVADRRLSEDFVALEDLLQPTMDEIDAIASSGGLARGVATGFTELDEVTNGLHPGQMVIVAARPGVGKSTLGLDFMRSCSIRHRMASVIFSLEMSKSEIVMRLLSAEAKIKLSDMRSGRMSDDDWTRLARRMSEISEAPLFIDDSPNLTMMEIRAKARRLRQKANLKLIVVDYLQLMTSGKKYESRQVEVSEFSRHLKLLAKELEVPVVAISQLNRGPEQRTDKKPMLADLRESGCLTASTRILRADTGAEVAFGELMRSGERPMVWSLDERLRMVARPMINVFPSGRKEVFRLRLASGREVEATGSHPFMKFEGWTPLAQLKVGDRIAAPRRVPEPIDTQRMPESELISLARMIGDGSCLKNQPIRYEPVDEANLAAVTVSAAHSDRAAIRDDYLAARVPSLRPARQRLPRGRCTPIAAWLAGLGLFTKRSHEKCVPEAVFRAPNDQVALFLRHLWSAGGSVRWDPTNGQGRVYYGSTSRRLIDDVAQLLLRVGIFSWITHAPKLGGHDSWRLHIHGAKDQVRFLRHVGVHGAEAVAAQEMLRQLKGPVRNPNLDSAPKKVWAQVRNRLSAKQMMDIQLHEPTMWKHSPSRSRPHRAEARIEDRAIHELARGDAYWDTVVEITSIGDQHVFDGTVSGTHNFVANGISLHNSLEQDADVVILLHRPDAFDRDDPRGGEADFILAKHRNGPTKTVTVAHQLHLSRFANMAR

[11] = target: T7, Kappa-type opioid receptor (Homo sapiens, UniProt P41145); assay type: functional
Beta-galactosidase [12] = target: T3, Beta-galactosidase; assay: PubChem AID 485352; assay type: functional
[13] = target: Glucose-6-phosphate 1-dehydrogenase (Homo sapiens, UniProt P11413); assay: inhibition of Homo sapiens G6PD, dose series – biochemical, fluorescence, selectivity assay for P. falciparum G6PD inhibitor project, dose response (AID 504792); assay type: functional
[14] = target: T7, Kappa-type opioid receptor; assay type: functional; remark: listed apart in the source
Vero = assay: viability of Vero cells under compound – cytotoxicity control for flavivirus capping enzyme inhibitors (AID 588742); assay type: functional; conditions: Chlorocebus sabaeus
Mu-type opioid receptor = Mu-type opioid receptor (Homo sapiens, UniProt P35372); assay: HTS Image-Based Screen for Agonists of the MOR Receptor. [Related pubchem assays (depositor defined):AID1777, AID1785, AID1786, AID2133]; assay type: functional;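 also: imaging of beta-arrestin GFP recruitment into spots after receptor activation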
[15] = target: T2, Delta-type opioid receptor; assay: HTS Image-Based Screen for Antagonists of the DOR Receptor. [Related pubchem assays (depositor defined):AID1777, AID1785, AID1786, AID2133]; assay type: functional
Protein RecA = target: T8, Protein RecA (Mycobacterium tuberculosis, UniProt P9WHJ3); assay: Fluorescence Cell-Free Homogeneous Dose Retest to Identify Inhibitors of RecA-Intein Splicing Activity. [Related pubchem assays (depositor defined):AID2097, AID2223, AID489010, AID492950]; assay type: functional
T8 sequence (P9WHJ3 whole entry): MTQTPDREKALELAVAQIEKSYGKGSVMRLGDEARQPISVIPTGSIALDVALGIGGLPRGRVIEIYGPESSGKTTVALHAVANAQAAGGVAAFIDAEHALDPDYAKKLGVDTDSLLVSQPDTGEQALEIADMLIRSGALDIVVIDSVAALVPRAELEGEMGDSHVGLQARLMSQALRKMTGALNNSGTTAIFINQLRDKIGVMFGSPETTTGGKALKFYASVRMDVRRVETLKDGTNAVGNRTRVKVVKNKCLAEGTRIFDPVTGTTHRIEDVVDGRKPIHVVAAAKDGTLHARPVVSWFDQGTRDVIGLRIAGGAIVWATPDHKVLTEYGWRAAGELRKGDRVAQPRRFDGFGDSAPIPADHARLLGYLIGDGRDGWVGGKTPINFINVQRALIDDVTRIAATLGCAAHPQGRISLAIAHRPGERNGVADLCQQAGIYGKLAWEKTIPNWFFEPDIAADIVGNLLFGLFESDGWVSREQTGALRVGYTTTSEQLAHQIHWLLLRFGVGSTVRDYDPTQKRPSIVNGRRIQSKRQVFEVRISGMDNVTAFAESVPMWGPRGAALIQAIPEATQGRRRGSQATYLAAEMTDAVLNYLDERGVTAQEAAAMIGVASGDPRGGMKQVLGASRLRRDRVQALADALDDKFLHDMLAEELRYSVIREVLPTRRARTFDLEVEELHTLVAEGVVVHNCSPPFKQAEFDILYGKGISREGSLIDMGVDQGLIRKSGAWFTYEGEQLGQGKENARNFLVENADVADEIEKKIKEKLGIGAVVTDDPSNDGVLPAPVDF

Nonstructural protein 1 = Nonstructural protein 1 (Influenza A virus, UniProt Q194T2); assay type: functional, Influenza A virus (A/California/07/2009(H1N1))
cells [16] = assay type: functional, cell-based
[17] = target: Sentrin-specific protease 1 (Homo sapiens, UniProt Q9P0U3); assay: Dose response confirmation of small molecule inhibitors of the catalytic domain of the SUMO protease, SENP1 in a FRET assay.; assay type: functional; conditions: read-out: IC50_Mean
cells [18] = assay type: functional, cell-based; remark: listed apart in the source
[19] = mouse fibroblast viability loss – cell-based, cherry-pick samples, set 2, cytotoxicity control for T. cruzi growth inhibitor project, dose response (AID 651817); assay type: functional; conditions: NIH3T3
[20] = activation of miR-122 Renilla sensor silencing – cell-based, Huh7 psiCHECK-miR122, Renilla luciferase, cherry-picked, dose response (AID 651956); assay type: functional;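 also: huh7 hepatoma cells stably carrying a psiCHECK-2 miR-122 sensor plasmid; renilla luciferase signal reporting endogenous miR-122 activity after 48 h compound exposure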
[21] = microbe, parasite or virus in culture; assay type: functional; conditions: Mycobacterium tuberculosis
Cytochrome P450 3A4 = Cytochrome P450 3A4 (Homo sapiens, UniProt P08684);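 also: CYP3A4 tested as one member of a cytochrome P450 panel screen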
[22] = viability of HCT116 lacking mutant beta-catenin – cell-based, human colon tumor, dose response (AID 1045); assay type: functional;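 also: HCT116 colon tumor cells with beta catenin knocked out; cells exposed to compound for 60 hours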
[23] = general mammalian cell viability loss – activator set, cherry-pick, cytotoxicity control for miR-122 modulator project, dose response (AID 720690); assay type: functional, cell-based;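 also: HEK293T human cells scored for general mammalian cytotoxicity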
[24] = Luminescent dose response cell-based high throughput screening assay for inhibitors of the Janus kinase 2 mutant JAK2V617F. [Related pubchem assays: 1446 (Primary screen.), 1521 (Confirmation assay.), 1486 (Counter screen.)]; assay type: functional
[25] = general mammalian cell viability loss – inhibitor set, cherry-pick, set 2, cytotoxicity control for miR-122 modulator project, dose response (AID 720697); assay type: functional, cell-based
[26] = viability of PTEN-deleted HCT116 cells – cell-based, HCT116 PTEN knockout, dose response (AID 1047); assay type: functional;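 also: HCT116 colon tumor cells with PTEN knocked out; cells exposed to compound for 60 hours before readout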
Cytochrome P450 1A2 = target: T9, Cytochrome P450 1A2 (Homo sapiens, UniProt P05177);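 also: PubChem cytochrome P450 panel assay, CYP1A2 panel member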
T9 sequence (P05177 whole entry): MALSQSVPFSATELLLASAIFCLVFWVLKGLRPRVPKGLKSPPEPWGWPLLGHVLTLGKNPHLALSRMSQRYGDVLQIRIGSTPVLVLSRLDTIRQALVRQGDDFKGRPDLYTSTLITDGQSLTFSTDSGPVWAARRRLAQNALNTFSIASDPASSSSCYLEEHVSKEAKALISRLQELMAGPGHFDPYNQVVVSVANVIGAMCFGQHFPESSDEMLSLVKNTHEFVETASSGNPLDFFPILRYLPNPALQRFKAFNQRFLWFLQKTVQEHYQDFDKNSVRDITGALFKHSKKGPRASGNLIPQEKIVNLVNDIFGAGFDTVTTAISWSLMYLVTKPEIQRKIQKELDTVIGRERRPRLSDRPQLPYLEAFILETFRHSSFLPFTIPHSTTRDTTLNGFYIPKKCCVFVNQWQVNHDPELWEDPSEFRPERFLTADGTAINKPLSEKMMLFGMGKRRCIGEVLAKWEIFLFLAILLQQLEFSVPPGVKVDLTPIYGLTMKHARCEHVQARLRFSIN

[27] = target: T10, Sentrin-specific protease 8 (Homo sapiens, UniProt Q96LD8); assay type: functional
T10 sequence (Q96LD8 whole entry): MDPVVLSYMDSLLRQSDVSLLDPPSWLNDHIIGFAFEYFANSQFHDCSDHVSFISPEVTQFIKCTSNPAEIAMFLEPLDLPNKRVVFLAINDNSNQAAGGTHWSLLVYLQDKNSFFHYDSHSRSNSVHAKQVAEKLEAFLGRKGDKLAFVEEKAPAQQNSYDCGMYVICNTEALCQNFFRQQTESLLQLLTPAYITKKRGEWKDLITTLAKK

[28] = target: T10, Sentrin-specific protease 8; assay type: functional; remark: listed apart in the source

T1 sequence (P65502 whole entry, the tested form may be a part): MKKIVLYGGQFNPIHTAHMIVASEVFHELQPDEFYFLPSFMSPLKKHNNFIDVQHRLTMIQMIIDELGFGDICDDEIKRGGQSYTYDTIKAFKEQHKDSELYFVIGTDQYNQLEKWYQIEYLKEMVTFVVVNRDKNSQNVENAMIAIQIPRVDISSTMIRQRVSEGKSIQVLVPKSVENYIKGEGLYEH
T2 sequence (P41143 whole entry): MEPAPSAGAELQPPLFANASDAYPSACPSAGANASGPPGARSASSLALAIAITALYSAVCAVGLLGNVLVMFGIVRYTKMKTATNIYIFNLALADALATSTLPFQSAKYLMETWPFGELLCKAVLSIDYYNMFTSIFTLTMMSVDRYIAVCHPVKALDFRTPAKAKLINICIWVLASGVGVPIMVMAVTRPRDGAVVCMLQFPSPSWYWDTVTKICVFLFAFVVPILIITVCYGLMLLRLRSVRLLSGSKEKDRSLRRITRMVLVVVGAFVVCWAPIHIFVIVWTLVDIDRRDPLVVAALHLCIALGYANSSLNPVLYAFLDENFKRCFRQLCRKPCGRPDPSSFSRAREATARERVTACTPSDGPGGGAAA
T5 sequence (Q932Y6 whole entry): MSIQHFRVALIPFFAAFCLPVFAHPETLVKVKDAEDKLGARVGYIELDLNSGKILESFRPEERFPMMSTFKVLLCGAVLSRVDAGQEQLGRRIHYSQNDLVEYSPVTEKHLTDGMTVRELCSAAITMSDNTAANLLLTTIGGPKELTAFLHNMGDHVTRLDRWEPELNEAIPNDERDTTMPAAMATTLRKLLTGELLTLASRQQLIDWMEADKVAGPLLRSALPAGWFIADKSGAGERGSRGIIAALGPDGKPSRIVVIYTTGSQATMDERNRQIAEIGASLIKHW
Chain of Genome polyprotein (P29990 2492-3391 limits assumed): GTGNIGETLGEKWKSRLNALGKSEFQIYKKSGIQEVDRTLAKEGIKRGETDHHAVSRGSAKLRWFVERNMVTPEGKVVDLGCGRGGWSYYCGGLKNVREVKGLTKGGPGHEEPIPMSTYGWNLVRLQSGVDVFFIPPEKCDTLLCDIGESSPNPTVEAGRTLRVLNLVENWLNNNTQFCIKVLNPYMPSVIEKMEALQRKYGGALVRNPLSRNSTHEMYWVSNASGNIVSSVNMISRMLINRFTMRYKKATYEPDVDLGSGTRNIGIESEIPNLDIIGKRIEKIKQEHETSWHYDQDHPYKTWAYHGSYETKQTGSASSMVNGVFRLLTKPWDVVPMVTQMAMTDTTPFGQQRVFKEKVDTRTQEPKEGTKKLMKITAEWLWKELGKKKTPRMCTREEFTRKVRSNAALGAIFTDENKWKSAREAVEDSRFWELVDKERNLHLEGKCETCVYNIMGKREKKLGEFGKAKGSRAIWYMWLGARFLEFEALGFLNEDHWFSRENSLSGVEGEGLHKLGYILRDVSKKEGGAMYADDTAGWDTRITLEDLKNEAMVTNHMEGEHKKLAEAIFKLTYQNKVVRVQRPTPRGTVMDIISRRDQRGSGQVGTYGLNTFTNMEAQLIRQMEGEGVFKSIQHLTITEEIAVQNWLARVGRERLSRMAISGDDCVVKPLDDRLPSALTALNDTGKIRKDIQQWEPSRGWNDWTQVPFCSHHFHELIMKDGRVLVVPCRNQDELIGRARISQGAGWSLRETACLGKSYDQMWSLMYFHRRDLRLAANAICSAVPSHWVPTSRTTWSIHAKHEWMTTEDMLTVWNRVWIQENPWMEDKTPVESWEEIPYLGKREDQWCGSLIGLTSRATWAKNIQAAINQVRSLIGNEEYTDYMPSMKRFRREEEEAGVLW
T7 sequence (P41145 whole entry): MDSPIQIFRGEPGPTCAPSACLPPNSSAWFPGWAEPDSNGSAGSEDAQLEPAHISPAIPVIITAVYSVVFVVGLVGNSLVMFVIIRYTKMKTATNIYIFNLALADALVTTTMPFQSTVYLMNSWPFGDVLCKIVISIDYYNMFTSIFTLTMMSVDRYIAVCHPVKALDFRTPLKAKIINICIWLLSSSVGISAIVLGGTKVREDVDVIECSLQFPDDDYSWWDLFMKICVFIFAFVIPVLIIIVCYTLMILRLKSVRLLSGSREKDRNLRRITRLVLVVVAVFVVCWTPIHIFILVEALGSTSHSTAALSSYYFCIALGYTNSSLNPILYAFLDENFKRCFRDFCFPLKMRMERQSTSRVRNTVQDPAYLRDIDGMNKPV
T3 sequence (Q8VNN2 whole entry): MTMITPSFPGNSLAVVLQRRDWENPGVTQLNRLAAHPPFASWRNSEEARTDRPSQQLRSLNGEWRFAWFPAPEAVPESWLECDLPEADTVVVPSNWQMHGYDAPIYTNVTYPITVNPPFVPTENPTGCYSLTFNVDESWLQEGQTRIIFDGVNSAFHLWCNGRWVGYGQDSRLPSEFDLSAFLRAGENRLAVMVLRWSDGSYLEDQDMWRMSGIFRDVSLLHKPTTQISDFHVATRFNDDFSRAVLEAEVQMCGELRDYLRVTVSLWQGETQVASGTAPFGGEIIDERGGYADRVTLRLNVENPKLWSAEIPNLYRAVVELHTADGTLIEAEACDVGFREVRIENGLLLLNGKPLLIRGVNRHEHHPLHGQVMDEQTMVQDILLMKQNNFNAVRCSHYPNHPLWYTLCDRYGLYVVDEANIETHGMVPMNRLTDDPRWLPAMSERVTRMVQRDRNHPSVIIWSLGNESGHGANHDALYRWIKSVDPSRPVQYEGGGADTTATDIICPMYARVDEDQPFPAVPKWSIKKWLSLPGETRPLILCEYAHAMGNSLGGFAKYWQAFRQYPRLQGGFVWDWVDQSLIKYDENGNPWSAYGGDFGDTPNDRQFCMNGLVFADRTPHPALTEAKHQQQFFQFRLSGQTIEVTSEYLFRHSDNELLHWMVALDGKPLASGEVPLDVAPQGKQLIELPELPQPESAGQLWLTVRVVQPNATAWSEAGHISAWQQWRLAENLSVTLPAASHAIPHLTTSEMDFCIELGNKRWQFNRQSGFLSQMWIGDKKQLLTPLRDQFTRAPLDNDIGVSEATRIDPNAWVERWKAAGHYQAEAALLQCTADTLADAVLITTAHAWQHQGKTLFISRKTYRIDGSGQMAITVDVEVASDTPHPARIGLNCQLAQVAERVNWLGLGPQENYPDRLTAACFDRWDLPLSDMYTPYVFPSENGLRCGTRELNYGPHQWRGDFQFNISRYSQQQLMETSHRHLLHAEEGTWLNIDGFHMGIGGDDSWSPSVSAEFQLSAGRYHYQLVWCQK
Chain of Nonstructural protein 1 (Q194T2 whole entry): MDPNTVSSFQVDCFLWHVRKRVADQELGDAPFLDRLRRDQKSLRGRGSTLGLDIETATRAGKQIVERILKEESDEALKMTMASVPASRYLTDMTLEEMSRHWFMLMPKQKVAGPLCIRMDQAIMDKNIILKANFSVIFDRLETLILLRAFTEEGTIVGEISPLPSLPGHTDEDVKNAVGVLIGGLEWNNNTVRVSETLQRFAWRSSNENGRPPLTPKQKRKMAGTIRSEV
Chain of Cytochrome P450 3A4 (P08684 whole entry): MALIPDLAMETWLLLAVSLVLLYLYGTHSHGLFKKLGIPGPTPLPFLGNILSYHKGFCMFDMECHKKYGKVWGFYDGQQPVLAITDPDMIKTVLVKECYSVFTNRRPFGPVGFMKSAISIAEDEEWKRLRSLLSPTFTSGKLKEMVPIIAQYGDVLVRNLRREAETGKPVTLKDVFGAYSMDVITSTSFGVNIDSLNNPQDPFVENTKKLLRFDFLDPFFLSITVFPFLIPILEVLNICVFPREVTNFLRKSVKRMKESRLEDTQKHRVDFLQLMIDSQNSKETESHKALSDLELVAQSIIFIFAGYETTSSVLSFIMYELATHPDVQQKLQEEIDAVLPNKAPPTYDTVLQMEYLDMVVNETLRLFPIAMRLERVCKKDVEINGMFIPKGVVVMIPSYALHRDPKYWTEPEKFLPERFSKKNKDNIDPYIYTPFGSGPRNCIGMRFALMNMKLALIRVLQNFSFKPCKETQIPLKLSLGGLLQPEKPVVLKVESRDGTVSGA
Chain of Sentrin-specific protease 1 (Q9P0U3 whole entry, the tested form may be a part): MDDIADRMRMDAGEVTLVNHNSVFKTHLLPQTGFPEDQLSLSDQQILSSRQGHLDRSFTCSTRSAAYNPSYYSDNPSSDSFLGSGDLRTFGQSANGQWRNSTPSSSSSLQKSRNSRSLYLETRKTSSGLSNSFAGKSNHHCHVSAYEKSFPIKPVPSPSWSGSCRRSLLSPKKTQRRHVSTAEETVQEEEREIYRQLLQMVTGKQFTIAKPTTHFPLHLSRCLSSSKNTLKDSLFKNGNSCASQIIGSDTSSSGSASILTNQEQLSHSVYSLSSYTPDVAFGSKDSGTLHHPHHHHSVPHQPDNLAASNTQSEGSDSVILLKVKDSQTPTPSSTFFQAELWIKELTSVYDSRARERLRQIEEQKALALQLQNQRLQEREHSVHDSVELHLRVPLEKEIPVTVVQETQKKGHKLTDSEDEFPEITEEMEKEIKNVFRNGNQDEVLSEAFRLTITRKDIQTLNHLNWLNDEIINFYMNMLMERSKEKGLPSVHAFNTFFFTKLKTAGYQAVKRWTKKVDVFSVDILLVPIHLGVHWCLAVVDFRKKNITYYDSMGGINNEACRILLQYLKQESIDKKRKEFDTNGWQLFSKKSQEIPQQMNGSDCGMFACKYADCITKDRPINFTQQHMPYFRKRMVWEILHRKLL
Chain of Mu-type opioid receptor (P35372 whole entry): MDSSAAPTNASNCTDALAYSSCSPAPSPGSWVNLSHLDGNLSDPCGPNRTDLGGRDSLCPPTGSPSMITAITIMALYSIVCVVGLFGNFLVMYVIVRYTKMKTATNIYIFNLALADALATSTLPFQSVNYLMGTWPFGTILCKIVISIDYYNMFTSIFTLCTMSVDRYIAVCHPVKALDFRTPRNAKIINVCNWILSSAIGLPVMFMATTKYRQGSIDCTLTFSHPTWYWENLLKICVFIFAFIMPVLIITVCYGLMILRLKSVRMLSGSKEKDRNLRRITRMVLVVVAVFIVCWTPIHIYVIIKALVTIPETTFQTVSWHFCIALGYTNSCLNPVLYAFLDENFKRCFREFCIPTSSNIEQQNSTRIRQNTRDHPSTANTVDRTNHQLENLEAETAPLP

O=C(O)COc1ccccc1/C=N/NC(=O)c1cc(-c2ccc(Cl)cc2)nc2ccccc12
IC50 (Genome polyprotein): 39.5 µM (active) | IC50 [1]: 5.1 µM (active) | AC50 [2]: 75.2 µM (active) | IC50 [3]: 34.2 µM (active)

CCC(=O)OCCNc1cc(Sc2nc3ccccc3s2)c2nonc2c1[N+](=O)[O-]
EC50 [4]: < 0.5 µM (active) | EC50 (Beta-galactosidase [5]): > 31.5 µM (inactive) | IC50 [6]: 3.51 µM (active) | IC50 (Genome polyprotein): 29.6 µM (active) | IC50 (CHO): 3.25 µM (active) | IC50 [7]: 1.53 µM (active) | IC50 (Beta Lactamase [8]): 12.2 µM (inactive) | IC50 (Beta Lactamase [9]): 10.5 µM (inactive) | AC50 [10]: 2.36 µM (active) | pIC50 [11]: < 4.49 | EC50 (Beta-galactosidase [12]): > 40 µM (inactive) | IC50 [13]: > 80 µM (inactive) | IC50 [14]: 8.16 µM (active) | CC50 (Vero): 18.5 µM (active) | EC50 (Mu-type opioid receptor): > 32 µM (inactive) | IC50 [15]: > 32 µM (inactive) | EC50 (Protein RecA): 0.572 µM (active)

CCOC(=O)/C(C#N)=C/C=C1\C=Cc2ccccc2N1CC
IC50 (Nonstructural protein 1): > 100 µM (active) | EC50 (cells [16]): > 350 µM (not active) | IC50 [17]: 6.27 µM (active) | EC50 (cells [18]): > 350 µM (not active)

C[C@@H]1CN([C@@H](C)CO)C(=O)Cc2cc(NS(=O)(=O)c3ccc(Cl)cc3)ccc2O[C@H]1CN(C)S(=O)(=O)c1ccc(Cl)cc1
AC50 [19]: 19.4 µM (active)

CCCn1c(CC)nc([N+](=O)[O-])c1S(=O)(=O)c1ccccc1
AC50 [10]: > 380 µM (inactive) | AC50 [20]: 24.8 µM (active) | CC50 [21]: 13.1 µM (active) | AC50 (Cytochrome P450 3A4): 25.1 µM (inconclusive) | EC50 [22]: 6.09 µM (active) | AC50 [23]: 7.65 µM (active) | IC50 [24]: 0.996 µM (active) | AC50 [25]: 4.03 µM (active) | EC50 [26]: 5.85 µM (active) | EC50 (Protein RecA): > 380 µM (inactive) | AC50 (Cytochrome P450 1A2): 22.4 µM (inconclusive)

CC1=NN(c2ccc(C)cc2C)C(=O)C1C(c1cccc(O)c1)C1C(=O)N(c2ccc(C)cc2C)N=C1C (stereo unspecified)
AC50 [10]: 1.09 µM (active) | IC50 [27]: 30 µM (active) | IC50 [28]: 12.6 µM (active) | EC50 (Protein RecA): 0.524 µM (active)
